Laboratory results taken from patent US20230277508A1, “USE OF COMPOUND AS CYP2E1 INHIBITOR” (SHANGHAI LING XI BIOTECHNOLOGY DEVELOPMENT CO., LTD., priority 2020, published 2023).

Columns and labels:
[1] = test system: HepG2 liver cancer cells / macrophage RAW264.7; experiment: HepG2 cells co-cultivated with RAW264.7 macrophage supernatant; assay type: cell-based; conditions: SMI0 intervention groups (especially 4 μmol/L) vs macrophage co-cultivation group, P<0.001
Experimental: Experimental method: A supernatant of a murine macrophage RAW264.7 was collected to establish a co-cultivation system with the HepG2 liver cancer cell, thereby simulating a macrophage inflammatory microenvironment of liver cancer. In the SMI0 intervention groups, SMI0 was added at different concentrations (0 μmol/L, 0.16 μmol/L, 0.8 μmol/L, 4 μmol/L, 20 μmol/L, and 100 μmol/L) while interleukin was added for induction. Culture supernatants of the SMI0 intervention groups were collected to prepare conditional media. HepG2 liver cancer cells in a logarithmic growth phase were adopted. The proliferation activity of HepG2 was determined by a CCK8 method, a migration ability of HepG2 was determined by wound-healing assay, and an apoptosis ability of HepG2 was determined by FCM.

U251 glioma cells = experiment: Direct effect on U251 glioma cells in vitro (CCK8); assay type: cell-based, human; conditions: up to 128 μmol/L or 200 μmol/L
Experimental: (§1) Experimental method: GL261 murine glioma cells and U251 human glioma cells in a logarithmic growth phase each were selected and inoculated into a 96-well plate at a concentration of 5*10^5 cells/mL, then 100 μL of a cell suspension was added to each well, and 12 h later, a medium was discarded; 200 μL of a basic medium including SMI0 at different concentrations ([…]) was added to each well, and 24 h later, 10 μL of a CCK8 reagent was added to each well; and the cells were further cultivated for 2 h, and an absorbance OD value of each well was determined at 450 nm by a microplate reader. 3 replicates were set for each well, and an average was taken. The proliferation activity was calculated based on the OD value.

GL261 cells = experiment: Direct effect on GL261 glioma cells in vitro; assay type: cell-based, murine
Experimental: as §1, with “[…];” for “and 24 h later, 10 μL of a CCK8 reagent was added to each well;”

GL261 cells / astrocytes = experiment: GL261 cells co-cultivated with M2 astrocytes; assay type: cell-based, mouse; conditions: SMI0 50 μmol/L vs M2 astrocyte co-cultivation group, P<0.05
Experimental: Experimental method: 10 1-2 d newborn C57BL/6 WT mice and 6 CYP2E1^−/− mice were taken, primary microglial cells and astrocytes were collected and inoculated into 6-well plates, and 24 h later, culture supernatants were taken and co-cultivated with glioma cells. Experimental groups: control group; M2 model group; high-concentration, medium-concentration, and low-concentration SMI0 (50 μmol/L, 12.5 μmol/L, and 3.1 μmol/L) groups; and CYP2E1 gene-knockout group. 24 h later, supernatants were discarded; and […] and IL-13 each were added at 20 ng/mL to induce the transformation of microglial cells into the M2 type in the M2 model group and the high-concentration, medium-concentration, and low-concentration SMI0 groups, and different concentrations of SMI0 (50 μmol/L, 12.5 μmol/L, and 3.1 μmol/L) were also added in the intervention groups. The proliferation of glioma cells was determined by a CCK8 method, and an apoptosis proportion was determined by an Annexin V-FITC-PI apoptosis staining kit.

[2] = test system: liver steatosis and hepatitis in mice caused by a high-fat diet; experiment: Mouse liver steatosis and hepatitis model induced by a high-fat diet; assay type: in vivo, C57/6J mice; conditions: 22 weeks, vs model group
Experimental: Experimental method: Healthy male C57/6J mice were fed with a high-fructose, high-fat, and high-cholesterol feed to prepare mouse liver steatosis and hepatitis models, and a control group was fed with a low-fat and low-sugar control feed. An SMI0 intervention group was divided into a low-dose intervention group and a high-dose intervention group, which were intragastrically administered with the compound SMI0 at 30 mg/kg and 150 mg/kg every day from the beginning of modeling to the 22nd week of modeling. At the end of the 22-week experiment, blood was collected from the orbit, a body weight was measured, and then the mice each were sacrificed. The weight and appearance of a liver (color, texture, and presence or absence of nodules of the liver) were recorded. Some liver specimens were subjected to HE staining and then observed, and a steatosis score of mice in each group was recorded; and Masson staining was conducted to evaluate a liver fibrosis status of mice, and an oil red O staining area percentage and an LCA staining inflammation score were determined (model group, n=8 mice; SMI0 compound low-dose group, […]).
The pathological results of HE staining of a liver tissue were subjected to quantitative scoring based on the following criteria to determine a steatosis severity:
The pathological results of Masson staining of a liver tissue were subjected to quantitative scoring based on the following criteria to determine a fibrosis severity: […]

[3] = test system: A549 lung cancer cells / M2 macrophages; experiment: Proliferation of A549 cells co-cultivated with M2 macrophages (conditional media, CCK8); assay type: cell-based, human; conditions: SMI0 50 μmol/L during M2 induction, vs M2 macrophage co-cultivation group, P<0.05
Experimental: Experimental method: PMA was used at […] to induce the transformation of human monocytic leukemia cells THP-1 into MO macrophages, and then IL-4 and IL-13 were used at 20 ng/mL to induce the transformation of MO macrophages into M2 macrophages. A supernatant was collected to establish a co-cultivation system with an A549 lung cancer cell, thereby simulating a M2-type macrophage microenvironment of lung cancer. In the SMI0 intervention group, SMI0 (50 μmol/L) was added for intervention while interleukin was added for induction. Culture supernatants of the MO macrophages, M2 macrophages, and SMI0 intervention group were collected to prepare conditional media. […] cells/mL, then 100 μL of each of different conditional media was added to each well, and 24 h later, 10 μL of a CCK8 reagent was added to each well; and the cells were further cultivated for 2 h, and an absorbance OD value of each well was determined at 450 nm by a microplate reader. 3 replicates were set for each well, and an average was taken. The proliferation activity was calculated based on the OD value.

[4] = SMI0 high-dose 150 mg/kg ig daily
[5] = SMI0 low-dose 30 mg/kg ig daily

CC(=O)c1scnc1C [SMI0]
significantly weakened: migration ability of HepG2 liver cancer cells [1] | proliferation activity of HepG2 liver cancer cells [1] | proliferation activity of GL261 cells (GL261 cells / astrocytes) | proliferation activity of A549 cells [3]
significantly reduced: liver inflammation level (number of LCA-positive cell staining foci) [2, 4] | oil red O staining area percentage [2, 4] | steatosis score [2, 4] | liver coefficient [2, 5] | oil red O staining area percentage [2, 5] | steatosis score [2, 5]
no significant inhibitory effect: effect on the proliferation of U251 glioma cells (U251 glioma cells) | inhibitory effect on GL261 (GL261 cells; 0 μM to 128 μM, 48 h) | effect on the proliferation of GL261 glioma cells (GL261 cells; up to 128 μmol/L or 200 μmol/L, CCK8)
significantly enhanced: apoptosis ability of HepG2 liver cancer cells [1]
